Patent US8034790B2, “Use of MDA-7 to inhibit pathogenic infectious organisms” (priority 2003, dated 2011)

How the values were obtained:
H1299 cells = test: Cell viability / cell killing (trypan blue exclusion) in H1299 cells; type: cell-based, human; conditions: for effect on cell killing by Ad-mda7 / cytotoxicity of secretion inhibitor alone / effect on cell killing due to Ad-luc or Ad-endostatin / cell killing by MDA-7 protein applied to cells: H1299 cells; for effect on cell killing by Ad-mda7: combination of Ad-mda7 and secretion inhibitor; for cytotoxicity of secretion inhibitor alone: dose that blocks MDA-7 secretion; for effect on cell killing due to Ad-luc or Ad-endostatin: p>0.05; for cell killing by MDA-7 protein applied to cells: viability after 3 days, EM 20-100 ng/ml, BacM 100 ng/ml, supernatant 10 and 100 ng/ml
Description: Construction and purification of replication-deficient human type 5 Adenovirus (Ad5) carrying the mda-7 gene was described previously (Mhashilkar et al., 2001). Cell lines were infected with Ad-mda7 or Ad-luc with indicated MOIs. Cells were plated at 10^5-10^6 cells/well in a 6-well plate format for protein expression, trypan-blue exclusion assay or apoptosis assays. For transfection with pShooter vectors, 1 μg of plasmid DNA was used to transfect cells using lipofectamine protocol as described (Mhashilkar et al., 2003).
Cell viability was determined by trypan blue exclusion assay or Live/Dead assay. Cells were trypsinized and a small aliquot was suspended 1:1 volume with 0.1% trypan blue. Total cell numbers and cell viability counts were assessed using a hemocytometer under light microscopy. For Live/Dead assay (Molecular Probes, Eugene Oreg.) cells were plated in chamber slides (Nunc) and then treated with pShooter-plasmid vectors or with Ad− vectors. Two-four days later the cells were treated with the probes, Calcein AM and Ethidium homodimer (both at 5 uM final conc. in PBS), for 30 minutes and then live (green) and dead (red) cells were counted via fluorescence microscopy. All assays were performed at least three times.

MDA-7 protein = MDA-7 protein expression and secretion by western blot (cell lysates and supernatants); type: cell-based, human; conditions: Ad-mda7 treated H1299 cells
Description: Cell lysates ([…]) were suspended in 500 μl of Laemmli buffer with 5% 2-mercapto-ethanol (2ME) or supernatants (1:1 mixing with Laemmli buffer+2ME), were analyzed by SDS gel electrophoresis and western blot analysis. Expression of various proteins was determined by using the following primary antibodies: rabbit or mouse anti-human MDA-7 (Introgen Therapeutics, Inc), goat anti-human BiP/GRP-78, rabbit anti-human GADD34, goat anti-human PP2A, goat anti-human PERK, rabbit anti-human XBP-1 (Santa Cruz Biotechnologies, Santa Cruz, Calif.), rabbit anti-human caspase 7 and caspase-9 (Cell Signaling Technology, Beverly, Mass.). Antibodies against beta-actin, and alpha-tubulin were purchased from Sigma. Following incubation with horseradish peroxidase-labeled secondary antibody (Amersham Biosciences, Piscataway, N.J.) the proteins were visualized on enhanced chemiluminescence film (Hyperfilm, Amersham Biosciences, Piscataway, N.J.) by application of Amersham's enhanced chemiluminescence western blotting detection system. All westerns were performed 2-4 times.
H1299 cells were treated with 1000 vp/cell Ad-mda7 and the indicated concentrations of tunicamycin. Cells were harvested 24 hr later and analyzed for intracellular and secreted MDA-7 protein by western blot and apoptosis via Annexin V assay. Control cultures of cells treated with only tunicamycin were also assessed for apoptosis (Tun. Toxicity).

endostatin = test: Endostatin secretion from Ad-endostatin treated H1299 cells; type: cell-based, human; conditions: H1299 cells treated with Ad-endostatin
From the text: To address whether apoptosis induction is due to intracellular MDA-7 or is simply a non-specific effect due to protein accumulation in the ER, we performed similar experiments using an adenoviral vector encoding endostatin as a control glycosylated secreted protein.

Molecule | effect on cell killing by Ad-mda7 (H1299 cells) | cytotoxicity of secretion inhibitor alone (H1299 cells) | effect on cell killing due to Ad-luc or Ad-endostatin (H1299 cells) | effect on endostatin secretion (endostatin) | cell killing by MDA-7 protein applied to cells (H1299 cells) | other results
C[C@H]1CCC/C=C/[C@@H]2C[C@H](O)C[C@H]2[C@H](O)/C=C/C(=O)O1 [BFA, Brefeldin A] | slightly enhanced cell killing | not cytotoxic | Neither BFA nor tunicamycin significantly modulated cell killing | potently blocked endostatin secretion |  | inhibition of MDA-7 secretion (MDA-7 protein; 1 μg/ml BFA): completely block MDA-7 secretion; concentration required to completely block secretion of MDA-7 protein (MDA-7 protein): less than 1 μg/ml
Tunicamycin | slightly enhanced cell killing | not cytotoxic | Neither BFA nor tunicamycin significantly modulated cell killing | potently blocked endostatin secretion |  | reduction of secreted MDA-7 (MDA-7 protein; 1 μg/ml tunicamycin): > 60%; inhibition of MDA-7 secretion (MDA-7 protein; 2 μg/ml tunicamycin): completely blocked secretion
MDA-7: protein of 206 amino acids (SEQ ID NO: 2) encoded by mda-7 cDNA (protein, listed as Homo sapiens) MNFQQRLQSLWTLARPFCPPLLATASQMQMVVLPCLGFTLLLWSQVSGAQGQEFHFGPCQVKGVVPQKLWEAFWAVKDTMQAQDNITSARLLQQEVLQNVSDAESCYLVHTLLEFYLKTVFKNYHNRTVEVRTLKSFSTLANNFVLIVSQLQPSQENEMFSIRDSAHRRFLLFRRAFKQLDVEAALTKALGEVDILLTWMQKFYKL |  |  |  |  |  | cell killing (H1299 cells; H1299 cells treated with MDA-7 protein and then transduced with Ad-luc): Only background killing was observed; anti-angiogenic activity, potency relative to endostatin (Anti-angiogenic activity): 50 fold
MDA-7 containing supernatant: MDA-7 containing supernatant from stably expressing 293-mda7 cells (protein, UniProt Q13007 52-206, looked up, cell culture supernatant, MDA-7 containing supernatant from stably expressing 293-mda7 cells) Interleukin-24: QEFHFGPCQVKGVVPQKLWEAFWAVKDTMQAQDNITSARLLQQEVLQNVSDAESCYLVHTLLEFYLKTVFKNYHNRTVEVRTLKSFSTLANNFVLIVSQLQPSQENEMFSIRDSAHRRFLLFRRAFKQLDVEAALTKALGEVDILLTWMQKFYKL |  |  |  |  | did not induce cell death | cell death above background levels (H1299 cells; supernatant from stably expressing 293-mda7 cells applied to H1299 cells, 10 and 100 ng/ml, 3 days): < 10%
BacM: MDA-7 protein made in insect cells using baculovirus vectors (protein, UniProt Q13007 52-206, looked up, insect cell expressed, MDA-7 protein made in insect cells using baculovirus vectors) Interleukin-24: QEFHFGPCQVKGVVPQKLWEAFWAVKDTMQAQDNITSARLLQQEVLQNVSDAESCYLVHTLLEFYLKTVFKNYHNRTVEVRTLKSFSTLANNFVLIVSQLQPSQENEMFSIRDSAHRRFLLFRRAFKQLDVEAALTKALGEVDILLTWMQKFYKL |  |  |  |  | failed to induce significant killing | 
